This note sets out measurements from PubChem BioAssay (NCI).

SMILES strings stand for the structures.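 Cultured in 96-well plates, cells were exposed to test compound for 48 hours across five concentrations. TGI denotes the concentration required for complete inhibition of growth.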

Among the test systems are MDA-MB-231 breast; SF-295 CNS; U251 CNS; SR leukemia; HOP-92 NSCLC; BT-549 breast; A498 renal; SN12C renal; 786-0 renal; NCI/ADR-RES ovarian.
Holding throughout (experiment): NCI-60 cell line screen, 48 h

As to `COc1ccc2c(c1)CCC/C2=N\NS(=O)(=O)c1c(C)cc(C)cc1C`, the TGI in the assay on MDA-MB-231 breast was greater than 100 µM; in the assay with SF-295 CNS, 94.6 µM; in the assay with U251 CNS, greater than 100 µM; in the assay with SR leukemia, 49.5 µM; with HOP-92 NSCLC, 54.7 µM; with BT-549 breast, 77.2 µM. The TGI was found to be 77 µM in the assay on A498 renal, 45.5 µM with SN12C renal, 37.8 µM in the assay on 786-0 renal and 59.9 µM with NCI/ADR-RES ovarian.
On to `O=P(O)(O)CN1CCNCCN(CP(=O)(O)O)CC1`, for which the TGI was greater than 100 µM in the assay on MDA-MB-231 breast; greater than 100 µM with SF-295 CNS; greater than 100 µM with U251 CNS; greater than 90.6 µM with SR leukemia; greater than 100 µM in the assay on HOP-92 NSCLC; greater than 100 µM in the assay with BT-549 breast. Further, the TGI in the assay with A498 renal was greater than 100 µM; in the assay with SN12C renal, greater than 100 µM; in the assay on 786-0 renal it was greater than 100 µM; in the assay with NCI/ADR-RES ovarian, greater than 44.9 µM.
`CC[C@@]1(O)C(=O)OCc2c1cc1n(c2=O)Cc2c-1nc1ccccc1c2/C=N\NC(=O)C(N)Cc1c[nH]c2ccccc12` (stereo not given in full): the TGI in the assay with MDA-MB-231 breast is greater than 100 µM; in the assay with SF-295 CNS, 4.76 µM; in the assay on U251 CNS, 5.16 µM; in the assay on SR leukemia, 1.19 µM; with HOP-92 NSCLC, greater than 54 µM; in the assay on BT-549 breast, greater than 100 µM. The TGI was 2.76 µM in the assay on A498 renal, greater than 95.3 µM with SN12C renal, greater than 21.7 µM in the assay on 786-0 renal and greater than 35.6 µM in the assay on NCI/ADR-RES ovarian.
Take `CCOC(=O)C(C/C=C/CO)N(C)C(=O)OC(C)(C)C` (stereo not given): the TGI in the assay with MDA-MB-231 breast, in the assay on SF-295 CNS, with U251 CNS, in the assay on SR leukemia, in the assay with HOP-92 NSCLC and in the assay on BT-549 breast was greater than 100 µM throughout. The TGI in the assay on A498 renal, with SN12C renal, with 786-0 renal and in the assay on NCI/ADR-RES ovarian was greater than 100 µM each time.
Take `CCOC(=O)C1=C(C)N(Cc2ccccc2)C2(O)C=CC(=O)C3=C(O)c4ccccc4C(=O)C312` (stereo not given): the TGI in the assay with MDA-MB-231 breast was 37.8 µM; in the assay on SF-295 CNS it was 31.4 µM; with U251 CNS, 38.5 µM; in the assay on SR leukemia, 14.1 µM; in the assay with HOP-92 NSCLC, 41.8 µM; with BT-549 breast, 20.2 µM. Besides, the TGI was found to be 60.3 µM with A498 renal, 32.1 µM in the assay with SN12C renal, 26.2 µM in the assay on 786-0 renal and 0.708 µM in the assay on NCI/ADR-RES ovarian.
In the case of `CC(=O)OCC1OC(n2c(-c3ccccc3)c(N=Nc3ccc(C)cc3)c(C)c(C#N)c2=S)C(OC(C)=O)C(OC(C)=O)C1OC(C)=O` (stereo not given), the TGI is greater than 100 µM with MDA-MB-231 breast; 97.2 µM in the assay with SF-295 CNS; 33.4 µM in the assay on U251 CNS; greater than 100 µM in the assay with SR leukemia; 0.856 µM with HOP-92 NSCLC; 19 µM in the assay with BT-549 breast. The TGI in the assay on A498 renal turned out to be 18.4 µM; in the assay with SN12C renal it was 28.9 µM; in the assay with 786-0 renal, 12.5 µM; in the assay with NCI/ADR-RES ovarian it was 39.9 µM.
On to `CC1(C)CC(=O)C2=C(C1)OC1(CC2c2ccc(Cl)cc2)CC(c2ccc(Cl)cc2)C2=C(CC(C)(C)CC2=O)O1` (stereo not given), for which the TGI in the assay on MDA-MB-231 breast was 50.3 µM; in the assay with SF-295 CNS, greater than 53.2 µM; in the assay on U251 CNS, greater than 57.6 µM; with SR leukemia it was 87.2 µM; with HOP-92 NSCLC it was 25.7 µM; in the assay on BT-549 breast, 50.6 µM. Moreover, the TGI in the assay with A498 renal was 31 µM; in the assay on SN12C renal it was greater than 84.2 µM; in the assay with 786-0 renal, 35.9 µM; in the assay with NCI/ADR-RES ovarian it was greater than 73.3 µM.
On to `COC(=O)C(NC(=O)OC(C)(C)C)P(=O)(OC)OC` (stereo not given), for which the TGI in the assay with MDA-MB-231 breast, in the assay on SF-295 CNS, in the assay with U251 CNS, in the assay with SR leukemia, with HOP-92 NSCLC and in the assay on BT-549 breast was greater than 100 µM throughout. Moreover, the TGI with A498 renal, in the assay with SN12C renal, with 786-0 renal and in the assay on NCI/ADR-RES ovarian was greater than 100 µM throughout.
Take `COc1ccc(-n2cnc3c(NC(Cc4ccccc4)C(=O)O)ncnc32)cc1` (stereo not given): the TGI with MDA-MB-231 breast, in the assay on SF-295 CNS, in the assay with U251 CNS, in the assay with SR leukemia, in the assay with HOP-92 NSCLC and with BT-549 breast was greater than 100 µM in each case. The TGI in the assay on A498 renal, in the assay with SN12C renal, in the assay on 786-0 renal and with NCI/ADR-RES ovarian was greater than 100 µM in each case.
For the compound `CN(C)CCNC(=O)c1c(O)ccc2c1c1c(n2CCc2ccccc2)C(=O)c2ccccc2C1=O`, the TGI with MDA-MB-231 breast is 15 µM; in the assay with SF-295 CNS, 15.9 µM; with U251 CNS, 13.9 µM; in the assay on SR leukemia, 7.11 µM; in the assay with HOP-92 NSCLC, 22.7 µM; in the assay with BT-549 breast it was 32.6 µM. In addition, the TGI was 31.9 µM in the assay on A498 renal, 20 µM in the assay on SN12C renal, 11.3 µM in the assay on 786-0 renal and 29.4 µM in the assay on NCI/ADR-RES ovarian.
For the compound `O=c1[nH]nc(-c2ccccc2)n1-n1cnnc1`, the TGI in the assay on MDA-MB-231 breast, in the assay with SF-295 CNS, in the assay with U251 CNS, in the assay on SR leukemia, with HOP-92 NSCLC and in the assay on BT-549 breast was greater than 100 µM each time. For the same compound, the TGI in the assay with A498 renal, in the assay on SN12C renal, with 786-0 renal and in the assay with NCI/ADR-RES ovarian was greater than 100 µM each time.
Consider `C=C1C(=O)OC2C3OC(C)(CCC(O)C3COC(C)=O)CC(OC(=O)/C(=C/C)COC(C)=O)C12` (stereo not given), for which the TGI is 1.16 µM in the assay on MDA-MB-231 breast; 22.3 µM with SF-295 CNS; 2.88 µM in the assay with U251 CNS; 0.713 µM with SR leukemia; 0.392 µM with HOP-92 NSCLC; 0.722 µM in the assay with BT-549 breast. For the same compound, the TGI in the assay with A498 renal amounted to 3.05 µM; with SN12C renal it was 1.98 µM; with 786-0 renal, 0.394 µM; in the assay on NCI/ADR-RES ovarian, 11 µM.
Regarding `CCNC(=S)N/N=C(\C)c1cccc(C)n1`, the TGI with MDA-MB-231 breast is greater than 100 µM; in the assay on SF-295 CNS, greater than 100 µM; in the assay with U251 CNS, 83.2 µM; with SR leukemia, greater than 100 µM; in the assay with HOP-92 NSCLC, 53.1 µM; in the assay with BT-549 breast it was greater than 100 µM. For the same compound, the TGI was 45.3 µM in the assay on A498 renal, greater than 100 µM in the assay with SN12C renal, greater than 100 µM with 786-0 renal and greater than 100 µM in the assay with NCI/ADR-RES ovarian.
Turning to `O=C(Nc1ccc2ccccc2c1)c1cc2cc(CCl)ccc2oc1=O`, the TGI in the assay with MDA-MB-231 breast, with SF-295 CNS, in the assay with U251 CNS, with SR leukemia, in the assay with HOP-92 NSCLC and in the assay on BT-549 breast was greater than 100 µM throughout. Besides, the TGI in the assay with A498 renal, in the assay with SN12C renal, in the assay with 786-0 renal and in the assay with NCI/ADR-RES ovarian was greater than 100 µM each time.
In the case of `c1cc2c(cc1C1=NCCN1)c1cc(C3=NCCN3)ccc1n2CC1CCCCC1`, the TGI in the assay on MDA-MB-231 breast was greater than 100 µM; in the assay on SF-295 CNS, greater than 100 µM; in the assay with U251 CNS, 22.9 µM; in the assay on SR leukemia, 38.6 µM; in the assay with HOP-92 NSCLC, 47.9 µM; in the assay with BT-549 breast it was 41.9 µM. In addition, the TGI in the assay on A498 renal was greater than 100 µM; in the assay with SN12C renal, 80.1 µM; in the assay with 786-0 renal, 96.4 µM; in the assay with NCI/ADR-RES ovarian it was greater than 100 µM.
Take `NN/C(=N\S(=O)(=O)c1ccc(S(=O)(=O)c2ccccc2)s1)Nc1ccc(Cl)cc1`: the TGI in the assay with MDA-MB-231 breast is greater than 100 µM; in the assay with SF-295 CNS it was greater than 100 µM; in the assay on U251 CNS it was greater than 100 µM; in the assay on SR leukemia it was 44 µM; with HOP-92 NSCLC, 73.3 µM; in the assay on BT-549 breast it was greater than 100 µM. The TGI is greater than 100 µM in the assay on A498 renal, 77.8 µM with SN12C renal, 54.2 µM in the assay on 786-0 renal and greater than 100 µM in the assay on NCI/ADR-RES ovarian.
